Measured values reported in US10751339B2, “Substituted aminopyrimidine compounds and methods of use” (SUNSHINE LAKE PHARMA CO., LTD., priority 2018, dated 2020).
pIC50: −log10 of the molar value.

What was measured:
[1] = Compound stability in human liver microsomes; format: in vitro ADME; conditions: pH 7.4
Outline: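 Compounds (5 μM, 0.05% DMSO) incubated in duplicate with liver microsomes (0.5 mg protein/mL) and 1.0 mM NADPH in 100 mM phosphate buffer pH 7.4 at 37 °C, sampled 0–60 min. Remaining compound measured by LC/MS/MS, expressed as percent of zero-time control; denatured-microsome and dextromethorphan controls included.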

[2] = Pharmacokinetic profiles in rats; format: in vivo, rat
Experimental: The compounds disclosed herein are assessed in pharmacokinetic studies in mice, rats, dogs or monkeys. The compounds are administered as a water solution, 2% HPMC+1% TWEEN®80 in water solution, 5% DMSO+5% solutol in saline, 4% MC suspension or capsule. For the intravenous administration, the animals are generally given at 1 or 2 mg/kg dose. For the oral (p.o.) dosing, mice and rats are generally given 5 or 10 mg/kg dose, and dogs and monkeys are generally given 10 mg/kg dose. The blood samples (0.3 mL) are drawn at 0.25, 0.5, 1.0, 2.0, 3.0, 4.0, 6.0, 8.0, 12 and 24 h time points or 0.083, 0.25, 0.5, 1.0, 2.0, 4.0, 6.0, 8.0 and 24 h time points and centrifuged at 3,000 or 4000 rpm for 2 to 10 min. The plasma solutions are collected, stored at −20° C. or −70° C. until analyzed by LC/MS/MS as described above.

PI3K (p110α/p85α) (h) = PI3K (p110α/p85α) (h) (Homo sapiens (Human), UniProt P42336); assay: PI3K (p110α/p85α) (h) non-radioactive HTRF kinase assay; format: biochemical
Experimental: (§1) PI3K (p110α/p85α) (h) is incubated in assay buffer containing 10 μM phosphatidylinositol 4,5-bisphosphate and MgATP (concentration as required). The reaction is initiated by the addition of the ATP solution. After incubation for 30 minutes at room temperature, the reaction is stopped by the addition of stop solution containing EDTA and biotinylated phosphatidylinositol-3,4,5-trisphosphate. Finally, detection buffer is added, which contains europium-labelled anti-GST monoclonal antibody, GST-tagged GRP1 PH domain and streptavidin allophycocyanin. The plate is then read in timeresolved fluorescence mode and the homogenous time-resolved fluorescence (HTRF) signal is determined according to the formula HTRF=10000×(Em665 nm/Em620 nm).
(§2) The kinase assays described herein were performed at Millipore UK Ltd, Dundee Technology Park, Dundee DD2 1SW, UK.

PI3K (p110δ/p85α) (h) = PI3K (p110δ/p85α) (h) (Homo sapiens (Human), UniProt O00329); assay: PI3K (p110δ/p85α) (h) non-radioactive HTRF kinase assay; format: biochemical
Experimental: as §1, with “(p110δ/p85α)” for “(p110α/p85α)”, “phosphatidylinositol-4, 5-bisphosphate” for “phosphatidylinositol 4,5-bisphosphate”, “MgATP mix.” for “ATP solution.”, “streptavidin-allophycocyanin.” for “streptavidin allophycocyanin.”
as §2

hERG channels = hERG channels (Homo sapiens (Human), UniProt Q12809); assay: hERG assay, manual patch-clamp in HEK-293 cells; format: cell-based
Description: Voltage clamp protocol: Computer software was used to set voltage clamp protocols. In whole-cell model, cells were held at −80 mV, first depolarized to −50 mV for 80 ms, and then depolarized to +20 mV for 4800 ms to activate the hERG channels. After that the cells were repolarized to −50 mV for 5000 ms to elicit the characteristic tail currents. Finally the cells were held at −80 mV again. The peak values of tail currents were sampled for analysis.
Manual patch-clamp protocol: The manual patch-clamp system was used to record the hERG currents in human embryonic kidney (HEK-293) cells. The cells were harvested and transferred to the recording charmer on the stage of an inverted microscope and perfused consistently with extracellular solution. The volume of the recording chamber was about 1 mL. The extracellular solution in the chamber was completely exchanged within 1 min at a perfusion rate about 1 mL/min. Patch micropipettes were pulled with micropipette puller. Pipettes were moved to the cells by Micromanipulator and a slight positive pressure was used to clear the surface before seal formation. A high-resistance seal between the surface of the plasma membrane and the tip of pipettes were achieved by a gentle suck. […]
Data was presented as mean±S.E.M. The effects of test article were normalized with the peak currents recorded in vehicle control. […]

hERG channels, sequence (Q12809 whole entry): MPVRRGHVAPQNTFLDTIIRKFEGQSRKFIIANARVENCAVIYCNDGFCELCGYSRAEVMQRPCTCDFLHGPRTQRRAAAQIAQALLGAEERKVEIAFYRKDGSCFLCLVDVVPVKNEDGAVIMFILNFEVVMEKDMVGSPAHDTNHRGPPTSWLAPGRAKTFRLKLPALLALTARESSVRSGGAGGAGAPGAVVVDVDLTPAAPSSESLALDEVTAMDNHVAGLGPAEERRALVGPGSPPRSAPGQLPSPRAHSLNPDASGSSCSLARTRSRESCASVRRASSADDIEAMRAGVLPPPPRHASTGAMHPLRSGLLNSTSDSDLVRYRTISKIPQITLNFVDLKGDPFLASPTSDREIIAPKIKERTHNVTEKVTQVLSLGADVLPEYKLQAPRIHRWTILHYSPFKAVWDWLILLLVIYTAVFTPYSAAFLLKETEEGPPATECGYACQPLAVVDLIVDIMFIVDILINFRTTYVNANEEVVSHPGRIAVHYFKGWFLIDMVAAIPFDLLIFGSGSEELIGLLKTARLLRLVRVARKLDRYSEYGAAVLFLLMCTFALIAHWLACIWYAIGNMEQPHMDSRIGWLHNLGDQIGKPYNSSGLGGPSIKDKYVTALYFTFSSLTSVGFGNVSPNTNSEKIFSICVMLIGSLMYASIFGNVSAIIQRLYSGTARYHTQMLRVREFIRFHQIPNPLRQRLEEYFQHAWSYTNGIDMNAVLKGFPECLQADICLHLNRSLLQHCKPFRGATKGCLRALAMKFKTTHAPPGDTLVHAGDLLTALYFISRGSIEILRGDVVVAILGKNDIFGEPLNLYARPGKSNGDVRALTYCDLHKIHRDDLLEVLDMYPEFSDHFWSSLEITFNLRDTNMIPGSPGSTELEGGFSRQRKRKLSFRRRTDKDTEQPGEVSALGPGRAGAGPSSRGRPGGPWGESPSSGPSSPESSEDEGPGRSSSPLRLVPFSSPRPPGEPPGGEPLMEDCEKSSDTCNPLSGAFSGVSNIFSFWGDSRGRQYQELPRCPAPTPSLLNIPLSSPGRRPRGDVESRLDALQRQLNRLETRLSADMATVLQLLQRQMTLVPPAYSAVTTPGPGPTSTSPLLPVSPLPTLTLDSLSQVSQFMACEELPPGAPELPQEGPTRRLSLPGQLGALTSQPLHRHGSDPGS
PI3K (p110α/p85α) (h), sequence (P42336 whole entry, the tested form may be a part): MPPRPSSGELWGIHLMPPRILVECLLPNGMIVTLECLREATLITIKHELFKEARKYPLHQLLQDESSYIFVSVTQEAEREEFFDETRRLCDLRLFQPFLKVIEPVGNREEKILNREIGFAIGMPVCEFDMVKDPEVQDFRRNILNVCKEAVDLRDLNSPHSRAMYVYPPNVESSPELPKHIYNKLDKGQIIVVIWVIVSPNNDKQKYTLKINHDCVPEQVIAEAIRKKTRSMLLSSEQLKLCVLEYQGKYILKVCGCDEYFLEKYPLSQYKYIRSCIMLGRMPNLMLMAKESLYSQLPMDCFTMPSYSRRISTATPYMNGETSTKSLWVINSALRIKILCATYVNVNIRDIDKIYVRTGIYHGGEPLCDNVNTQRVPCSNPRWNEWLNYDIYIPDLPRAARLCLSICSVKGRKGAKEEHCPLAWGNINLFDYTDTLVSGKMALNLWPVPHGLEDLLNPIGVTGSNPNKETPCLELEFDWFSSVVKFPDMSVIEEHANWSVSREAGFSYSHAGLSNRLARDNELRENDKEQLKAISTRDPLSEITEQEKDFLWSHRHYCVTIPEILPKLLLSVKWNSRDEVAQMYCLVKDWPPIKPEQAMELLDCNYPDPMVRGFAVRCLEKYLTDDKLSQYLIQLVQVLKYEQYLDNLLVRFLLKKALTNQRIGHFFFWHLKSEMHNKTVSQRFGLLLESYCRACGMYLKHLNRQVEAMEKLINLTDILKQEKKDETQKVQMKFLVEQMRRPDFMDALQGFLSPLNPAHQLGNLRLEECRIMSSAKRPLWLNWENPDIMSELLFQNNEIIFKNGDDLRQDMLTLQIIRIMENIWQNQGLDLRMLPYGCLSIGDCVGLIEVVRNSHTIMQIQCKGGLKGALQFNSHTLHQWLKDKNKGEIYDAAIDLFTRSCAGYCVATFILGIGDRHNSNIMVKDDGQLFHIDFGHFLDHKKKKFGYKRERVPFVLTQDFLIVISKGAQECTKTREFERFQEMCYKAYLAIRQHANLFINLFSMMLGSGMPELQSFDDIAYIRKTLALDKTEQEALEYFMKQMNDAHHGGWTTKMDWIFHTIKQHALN
PI3K (p110α/p85α) (h), sequence (P27986 whole entry partner, the tested form may be a part): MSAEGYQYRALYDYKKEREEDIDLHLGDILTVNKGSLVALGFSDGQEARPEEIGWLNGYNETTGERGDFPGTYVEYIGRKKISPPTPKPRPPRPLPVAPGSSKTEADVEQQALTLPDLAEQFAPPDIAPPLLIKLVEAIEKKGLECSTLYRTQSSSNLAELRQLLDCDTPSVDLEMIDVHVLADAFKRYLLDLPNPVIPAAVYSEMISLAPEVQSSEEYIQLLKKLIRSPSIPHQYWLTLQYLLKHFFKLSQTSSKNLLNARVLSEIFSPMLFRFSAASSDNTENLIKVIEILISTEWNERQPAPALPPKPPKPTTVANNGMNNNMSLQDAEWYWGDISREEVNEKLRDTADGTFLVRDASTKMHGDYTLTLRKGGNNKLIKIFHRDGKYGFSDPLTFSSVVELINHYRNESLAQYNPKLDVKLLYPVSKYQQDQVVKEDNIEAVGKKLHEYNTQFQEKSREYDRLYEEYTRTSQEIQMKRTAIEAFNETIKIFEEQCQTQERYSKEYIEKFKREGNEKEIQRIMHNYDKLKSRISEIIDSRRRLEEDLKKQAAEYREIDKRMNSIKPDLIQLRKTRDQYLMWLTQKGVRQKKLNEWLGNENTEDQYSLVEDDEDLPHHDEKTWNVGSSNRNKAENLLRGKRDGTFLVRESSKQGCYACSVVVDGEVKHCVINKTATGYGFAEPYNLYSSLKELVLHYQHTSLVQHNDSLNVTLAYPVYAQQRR
PI3K (p110δ/p85α) (h), sequence (O00329 whole entry): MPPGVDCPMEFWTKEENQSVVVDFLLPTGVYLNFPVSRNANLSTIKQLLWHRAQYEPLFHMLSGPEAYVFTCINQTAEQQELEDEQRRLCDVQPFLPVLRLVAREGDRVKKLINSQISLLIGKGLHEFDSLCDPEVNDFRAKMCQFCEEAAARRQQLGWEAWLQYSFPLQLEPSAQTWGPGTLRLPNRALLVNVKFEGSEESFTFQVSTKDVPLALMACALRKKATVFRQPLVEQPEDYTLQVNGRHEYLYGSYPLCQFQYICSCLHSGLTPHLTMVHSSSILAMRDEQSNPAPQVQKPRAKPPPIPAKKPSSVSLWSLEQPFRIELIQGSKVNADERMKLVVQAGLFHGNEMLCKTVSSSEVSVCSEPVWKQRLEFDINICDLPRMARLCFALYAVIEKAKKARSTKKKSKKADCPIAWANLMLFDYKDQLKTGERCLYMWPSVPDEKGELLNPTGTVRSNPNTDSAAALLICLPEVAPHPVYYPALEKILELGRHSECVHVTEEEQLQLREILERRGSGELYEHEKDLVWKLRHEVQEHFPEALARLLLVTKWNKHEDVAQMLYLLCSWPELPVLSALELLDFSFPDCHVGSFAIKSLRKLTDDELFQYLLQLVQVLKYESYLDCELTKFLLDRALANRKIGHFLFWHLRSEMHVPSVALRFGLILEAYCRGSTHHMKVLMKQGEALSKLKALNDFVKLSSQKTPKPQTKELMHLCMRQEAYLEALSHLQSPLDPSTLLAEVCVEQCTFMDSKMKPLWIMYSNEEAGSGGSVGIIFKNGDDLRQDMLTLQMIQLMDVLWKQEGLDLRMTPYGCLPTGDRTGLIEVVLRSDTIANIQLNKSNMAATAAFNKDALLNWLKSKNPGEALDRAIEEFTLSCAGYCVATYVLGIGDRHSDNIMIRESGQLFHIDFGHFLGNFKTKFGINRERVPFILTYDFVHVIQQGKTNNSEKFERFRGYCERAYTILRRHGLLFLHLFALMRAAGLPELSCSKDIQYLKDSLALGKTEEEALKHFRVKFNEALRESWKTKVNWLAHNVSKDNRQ
PI3K (p110δ/p85α) (h), sequence (P27986 whole entry partner): as the sequence (P27986 whole entry partner, the tested form may be a part) above

Structure (SMILES): Cc1noc(-c2c(N)ncnc2N[C@@H](C)c2nc3cccc(C#CCO)c3c(=O)n2-c2ccccc2)n1 [Example 34, (S)-2-(1-((6-amino-5-(3-methyl-1,2,4-oxadiazol-5-yl)pyrimidin-4-yl)amino)ethyl)-5-(3-hydroxyprop-1-yn-1-yl)-3-phenylquinazolin-4(3H)-one]
- CLint scaled at 5 μM ([1]; liver microsomes, in vivo CLint extrapolated from human liver microsome incubation): 36.9 mL/min/kg
- half-life at 5 μM ([1]; human liver microsomes 0.5 mg protein/mL, compound 5 μM, NADPH, 37° C., read-out: Human T1/2): 47.1 min
- clearance ([2]; iv dosing 1 mg/kg): 25 mL/min/kg
- AUC(0-t) ([2]; rat, plasma, iv dosing 1 mg/kg): 671 ng·h/mL
- half-life ([2]; rat, plasma, iv dosing 1 mg/kg): 54.6 min
- Vd ([2]; rat, plasma, iv dosing 1 mg/kg, read-out: Vss): 1.68 L/kg
- bioavailability ([2]; rat, plasma, oral bioavailability): 56.8%
- pIC50 (PI3K (p110α/p85α) (h)): 6.11
- pIC50 (PI3K (p110δ/p85α) (h)): 8.40
- pIC50 (hERG channels): 4.82
